Results taken from patent US20250171434A1, “SEC61 INHIBITORS AND USE THEREOF” (KEZAR LIFE SCIENCES, INC., priority 2022, published 2025).

How the values were obtained:
[1] = system: IL6R-ss+10aa/Gaussia Luciferase; test: Dox-induced IL-6R-ss-Gluc Assay; format: cell-based; settings: Table 1; for IC50: Flp-In 293 T-REx cells, 24 hours with doxycycline, read-out: 24hr Dox Inducible IL6R(ss + 10)Gluc 293FRT/TO: Mean IC50; for 24hr Dox Inducible IL6R(ss + 10)Gluc 293FRT/TO: IL6R/PD1: ratio of IC50s IL6R/PD1
Text: Flp-In 293 T-REx™ cells were transfected with pcDNATM5/FRT/TO plasmid inserted with cDNA encoding Gaussia Luciferase fused to the 3′ end of cDNA encoding IL6R signal sequence plus 10 amino acids (N-[…]-C). Transfected cells were selected for resistance to the selectable markers Hygromycin and Blasticidin to create a stable cell line that contained the IL6R-ss+10aa/Gaussia Luciferase cDNA insert whose expression was regulated under the T-REx™ system. The day before assay, cells were trypsinized and plated in 384-well tissue culture plates. The next day, compound dilutions in DMSO/media containing doxycycline were added to the wells and incubated at 37° C., 5% CO2.
(§1) For chemical structures that include one or more stereoisomers, but are illustrated without indicating stereochemistry, the assay data refers to a mixture of stereoisomers.

[2] = system: IL-2-FL/Gaussia Luciferase; test: Dox Inducible IL2-FL-Gluc Assay; format: cell-based; settings: Table 1; for IC50: Flp-In 293 T-REx cells, 24 hours with doxycycline, read-out: 24 hr Dox Inducible IL2FLGluc 293FRT/TO: Mean IC50; for 24 hr Dox Inducible IL2FLGluc 293FRT/TO: IL2/PD1: ratio of IC50s IL2/PD1
Text: Flp-In 293 T-REx™ cells were transfected with pcDNA™5/FRT/TO plasmid inserted with cDNA encoding Gaussia Luciferase fused to the 3′ end of cDNA encoding full length IL-2 (amino acids 1-153). Transfected cells were selected for resistance to the selectable markers Hygromycin and Blasticidin to create a stable cell line that contained the IL-2-FL/Gaussia Luciferase cDNA insert whose expression was regulated under the T-REx™ system. The day before assay, cells were trypsinized and plated in 384-well tissue culture plates. The next day, compound dilutions in DMSO/media containing doxycycline were added to the wells and incubated at 37° C., 5% CO2.
as §1

[3] = system: multiple myeloma cell line NCI-H929; test: H929 Cell Viability Assay; format: cell-based, human; settings: NCI-H929 cells, 48 hours, Celltiter-Glo; for EC50: Homo sapiens, read-out: 48 hr H929 Viability Celltiter-Glo: Mean EC50
Protocol: The human multiple myeloma cell line NCI-H929 was cultured in Advanced RPMI 1640 media (Gibco®) supplemented with 6% fetal bovine serum, 2 mM Glutamine, and 1× Penicillin/Streptomycin. On the day of assay, cells were resuspended in RPMI 1640 media supplemented with 10% fetal bovine serum, 2 mM Glutamine, and 1× Penicillin/Streptomycin and plated in 384-well tissue culture plates and treated with compound dilutions in DMSO/media. Plates were incubated at 37° C., 5% CO2 for 48 hours. After 48 hours, Celltiter-Glo® (Promega) was added to each well and luciferase signal was quantified using Tecan Infinite M1000 Pro for cell viability determination.
as §1

[4] = system: multiple myeloma cell line U266B1; test: U266 Cell Viability Assay; format: cell-based; settings: Homo sapiens, U-266; U266B1 cells, 48 hours, Celltiter-Glo; read-out: 48 hr U266 Viability Celltiter-Glo: Mean EC50
Protocol: The human multiple myeloma cell line U266B1 was cultured in RPMI 1640 media supplemented with 10% fetal bovine serum, 2 mM Glutamine, and 1× Penicillin/Streptomycin. Cells were plated in 384-well tissue culture plates and treated with compound dilutions in DMSO/media. Plates were incubated at 37° C., 5% CO2 for 48 hours. After 48 hours, Celltiter-Glo® (Promega) was added to each well and luciferase signal was quantified using Tecan Infinite M1000 Pro for cell viability determination.
as §1

[5] = Liver Microsome Stability Assay, rat; format: in vitro ADME; settings: rat liver microsomes 1.0 mg/mL, 1.0 uM compound, 37° C., 1 mM NADPH
Protocol: (§2) Stability of a compound was assessed in the presence of liver microsomes from various sources—mouse, rat, monkey and human liver microsomes. 1.0 uM compound, 0.4% DMSO in 0.1 M Potassium Phosphate with 1.0 mg/mL liver microsomes, were incubated at 37° C. with or without 1 mM NADPH. The samples were quenched at 0, and 30 minutes.

[6] = Liver Microsome Stability Assay, monkey; format: in vitro ADME; settings: monkey liver microsomes 1.0 mg/mL, 1.0 uM compound, 37° C., 1 mM NADPH
Protocol: as §2

CD47(ss + 10)Gluc = test: Dox-Induced CD47-ss-Gluc Assay; format: cell-based; settings: Flp-In 293 T-REx cells, 24 hours with doxycycline; Table 1; read-out: 24 hr Dox Inducible CD47(ss + 10)Gluc 293FRT/TO: Mean IC50
[7] = Liver Microsome Stability Assay, human; format: in vitro ADME; settings: human liver microsomes 1.0 mg/mL, 1.0 uM compound, 37° C., 1 mM NADPH
Protocol: as §2

[8] = Liver Microsome Stability Assay, mouse; format: in vitro ADME; settings: mouse liver microsomes 1.0 mg/mL, 1.0 uM compound, 37° C., 1 mM NADPH
Protocol: as §2

[9] = system: PD1-ss+10aa/Gaussia Luciferase; test: Dox-Induced PD1-ss-Gluc Assay; format: cell-based; settings: Flp-In 293 T-REx cells, 24 hours with doxycycline; Table 1; read-out: 24 hr Dox Inducible PD1ssGluc 293FRT/TO: Mean IC50
Text: Flp-In 293 T-REx™ cells were transfected with pcDNA™5/FRT/TO plasmid inserted with cDNA encoding Gaussia Luciferase fused to the 3′ end of cDNA encoding PD1 signal sequence plus 10 amino acids (N-[…]-C) (SEQ ID NO: 1). Transfected cells were selected for resistance to the selectable markers Hygromycin and Blasticidin to create a stable cell line that contained the PD1-ss+10aa/Gaussia Luciferase cDNA insert whose expression was regulated under the T-REx™ system. The day before assay, cells were trypsinized and plated in 384-well tissue culture plates. The next day, compound dilutions in DMSO/media containing doxycycline were added to the wells and incubated at 37° C., 5% CO2.
as §1

| IC50 [1] [µM] | IC50 [2] [µM] | 48 hr H929 Viability Celltiter-Glo: Mean EC50 (nM) [3] | EC50 [4] [µM] | Liver Microsome Stability (Multiple Species): Rat - % Remaining after 30 min w/ NADPH (%) [5] [%] | Liver Microsome Stability (Multiple Species): Monkey - % Remaining after 30 min w/ NADPH (%) [6] [%] | IC50 (CD47(ss + 10)Gluc) [µM] | Liver Microsome Stability (Multiple Species): Human - % Remaining after 30 min w/ NADPH (%) [7] [%] | Liver Microsome Stability (Multiple Species): Mouse - % Remaining after 30 min w/ NADPH (%) [8] [%] | IC50 [9] [µM] | EC50 [3] [µM] | Compound | 24hr Dox Inducible IL6R(ss + 10)Gluc 293FRT/TO: IL6R/PD1 [1] | 24 hr Dox Inducible IL2FLGluc 293FRT/TO: IL2/PD1 [2] |
| --- | --- | --- | --- | --- | --- | --- | --- | --- | --- | --- | --- | --- | --- |
| 2.07 | 2.94 | I.A | > 25 | 55 | 57 | 3.23 | 73 | 100 | 0.006 | – | O=C(Nc1nc(/C=C/c2ncn(C3CC3)c2Cl)cs1)c1cc(OC(F)F)cn1Cc1ccnc(F)c1 [Compound A15, (E)-N-(4-(2-(5-chloro-1-cyclopropyl-1H-imidazol-4-yl)vinyl)thiazol-2-yl)-4-(difluoromethoxy)-1-((2-fluoropyridin-4-yl)methyl)-1H-pyrrole-2-carboxamide] | 345 | 490 |
| 2.15 | 2.91 | – | > 25 | 56 | 58 | 2.8 | 83 | 81 | 0.006 | > 25 | [2H]C([2H])(c1ccnc(F)c1)n1cc(OC(F)F)cc1C(=O)Nc1nc(/C=C/c2ncn(C3CC3)c2Cl)cs1 [Compound A16, (E)-N-(4-(2-(5-chloro-1-cyclopropyl-1H-imidazol-4-yl)vinyl)thiazol-2-yl)-4-(difluoromethoxy)-1-((2-fluoropyridin-4-yl)methyl-d2)-1H-pyrrole-2-carboxamide] | 339 | 460 |
| 2.1 | 3.02 | I.A | > 25 | 2 | 17 | 2.74 | 26 | 72 | 0.009 | – | CCOc1cc(C(=O)Nc2nc(/C=C/c3ncn(C4CC4)c3Cl)cs2)n(Cc2ccnc(F)c2)c1 [Compound A17, (E)-N-(4-(2-(5-chloro-1-cyclopropyl-1H-imidazol-4-yl)vinyl)thiazol-2-yl)-4-ethoxy-1-((2-fluoropyridin-4-yl)methyl)-1H-pyrrole-2-carboxamide] | 240 | 340 |
| 5.53 | 7 | – | > 25 | 10 | 2 | 6.41 | 1 | 33 | 0.295 | 24.7 | O=C(Nc1nc(/C=C/c2ncn(C3CC3)c2Cl)cs1)c1cc(O)cn1Cc1ccnc(F)c1 [Compound A18, (E)-N-(4-(2-(5-chloro-1-cyclopropyl-1H-imidazol-4-yl)vinyl)thiazol-2-yl)-1-((2-fluoropyridin-4-yl)methyl)-4-hydroxy-1H-pyrrole-2-carboxamide] | 19 | 24 |
| 2.91 | 3.66 | – | > 25 | 23 | 51 | 4.35 | 4 | 65 | 0.01 | > 25 | O=C(Nc1nc(/C=C/c2ncn(C3CC3)c2Cl)cs1)c1cc(OCF)cn1Cc1ccnc(F)c1 [Compound A19, (E)-N-(4-(2-(5-chloro-1-cyclopropyl-1H-imidazol-4-yl)vinyl)thiazol-2-yl)-4-(fluoromethoxy)-1-((2-fluoropyridin-4-yl)methyl)-1H-pyrrole-2-carboxamide] | 287 | 360 |
| 3.76 | > 25 | – | > 25 | 41 | 28 | 5.01 | 52 | 74 | 0.031 | > 25 | COc1cc(C(=O)Nc2nc(/C=C/c3ncn(C4CC4)c3Cl)cs2)n(Cc2ccnc(F)c2F)c1 [Compound A20] | 123 | >810 |
| > 25 | > 25 | – | > 25 | 59 | <1 | 5.87 | 1 | 51 | 0.238 | > 25 | COc1cc(C(=O)Nc2nc(/C=C/c3ncn(C(C)C)c3Cl)c(CO)s2)n(Cc2ccnc(F)c2F)c1 [Compound A21] | >105 | >110 |
